Residues, ends and D or L forms follow the SMILES beside them.
Legend:
MRSA, ATCC# 43300 = format: cell-based, Staphylococcus aureus
Experimental: (§1) MIC assays (MRSA, ATCC# 43300/ MSSA, ATCC# 6538) were performed according to CLSI guidelines. […] Thereafter, samples were treated with peptide concentrations ranging from 10, 5, 2.5, 2, 1.75, 1.5 1.25, 1, 0,85, 0.625 and 0.313 µg/mL. Human antimicrobial peptide LL-37 was utilized as a positive control at a concentration of 256 μg/mL, as it is one of the best-known examples of AMP-based drug development. The assay was performed in triplicates. Efficacy was assessed according to the viable bacterial load determined by dilution plating and counting of Colony Forming Units (CFU). The lowest concentration that inhibited bacterial growth after 24 h of incubation is the MIC. Growth curve were performed using a plate reader (Synergy 2, Biotek).

[1] = tested on: methicillin-resistant Staphylococcus aureus; conditions: no reference given, cited from earlier work
Experimental: We evaluated the antimicrobial activity of the synthesized peptides by assessing their MIC against Meticillin-Sensitive Staphylococcus aureus and Methicillin-resistant Staphylococcus aureus (MSSA and MRSA). […] The MIC of vancomycin of 2 µg/mL was used as ... || The skin mucus-derived AMPs were initially characterized, and 22 candidate peptides were identified and ranked based on their likelihood of having antibacterial activities (Table 1, Supl. 2).

[2] = tested on: T-47D mammary carcinoma cells; test: Apoptosis assay (Apo-ONE Homogeneous Caspase-3/7) in T-47D cells; format: cell-based, human; conditions: for apoptotic activity compared to the control in T-47D cells: 1 µg/ml peptide; for apoptotic activity compared to the control in T-47D cells / caspase-3/7 activity (apoptotic induction) in T-47D cells: 24 h stimulation, fluorescence (RFU); for caspase-3/7 activity (apoptotic induction) in T-47D cells: 10 µg/ml peptide; for apoptosis in cancerous breast tissue cells (T-47D): all concentrations tested (1µg, 5µg, and 10µg), 24 h, compared with MCF10A, t-test
MSSA, ATCC# 6538 = test: MIC assay according to CLSI guidelines against MSSA; format: cell-based, Staphylococcus aureus; conditions: 24 h, 37°C; peptides listed in order of lowest to highest MIC; Fig 2A
Experimental: as §1

[3] = tested on: T-47D mammary carcinoma cells; test: Gene expression analysis, Human Breast Cancer RT2 Profiler PCR array; format: cell-based; conditions: 10 µg/mL peptide, 24 h, ΔΔCt vs unstimulated control, fold change above 2
Experimental: Three 75 cm^2 cell culture flasks containing the T-47D and three 75 cm^2 cell culture flasks containing the MCF10A cells were individually stimulated with peptides 1, 12, or 13 at a concentration of 10 µg/mL. An unstimulated cell culture flask was left as a control. Cells were incubated for 24 hours according to standard protocol at 37°C and 5% CO2, in a humidified atmosphere.
After 24 hours, the cells were detached, and RNA was isolated according to the Macherey-Nagel kit. RNA quality was assessed using a NanoDrop 1000 spectrophotometer and gel electrophoresis. To create cDNA the iScript cDNA Synthesis Kit (BioRad) was used and followed according to manufacturer’s instructions. For gene expression analysis, the Human Breast Cancer RT2 Profiler PCR array was used (Qiagen) according to manufacturer’s instructions. On this plate, forward and reverse primers were already included in each well for the respective genes. The qPCR cycling conditions were as follows: 8.5 min at 95°C, […] at 55°C, […] at 72°C and 4°C as holding temperature. Housekeeping gene stability was validated, and results were geometrically averaged. Beta (β)-actin was used for endogenous controls. Expression of carcinogenic markers was quantified relative by the ΔΔCt method and results were normalized to housekeeping genes (Livak and Schmittgen, 2001). The Ct values of the untreated samples were set to zero. The Ct values of the MCF10A samples were subtracted from the Ct values of the T-47D samples. Relative gene expression was calculated from the zero line using Microsoft Excel Version 2016 software (Microsoft Cooperation, Redmond, WA, USA). The resulting higher or lower expressions of the analyzed genes were presented. Gene expression was measured using the BioRad i-Cycler.

Row | Molecule | MIC against methicillin-resistant Staphylococcus aureus (MRSA) (MRSA, ATCC# 43300; ATCC# 43300, 24 h) [µg/mL] | MIC of vancomycin used as threshold for identifying inhibitory effects ([1]; threshold for MRSA and MSSA in Fig 2A) [µg/mL] | MIC values reported against similar MRSA strains ([1]; typical reported range) [µg/mL] | apoptotic activity compared to the control in T-47D cells [2] | caspase-3/7 activity (apoptotic induction) in T-47D cells [2] | apoptosis in cancerous breast tissue cells (T-47D) [2] | inhibitory effect against MSSA (MIC relative to vancomycin threshold of 2 µg/mL) (MSSA, ATCC# 6538) | genes with significant decrease in expression [3] | genes with significant increase in expression [3] | inhibitory effect against MRSA (MIC relative to vancomycin threshold of 2 µg/mL) (MRSA, ATCC# 43300; 24 h, 37°C, peptides listed in order of lowest to highest MIC, Fig 2A)
1 | CC[C@H](C)[C@H](NC(=O)CNC(=O)CNC(=O)[C@H](CO)NC(=O)[C@H](C)NC(=O)CNC(=O)[C@H](CC(C)C)NC(=O)[C@@H](NC(=O)[C@H](C)NC(=O)[C@@H](N)C(C)C)C(C)C)C(=O)NCC(=O)N[C@@H](CCC(N)=O)C(=O)N1CCC[C@H]1C(=O)N[C@@H](CC(C)C)C(=O)N[C@@H](CO)C(=O)N[C@@H](CC(C)C)C(=O)N[C@@H](CC(C)C)C(=O)N[C@@H](CC(C)C)C(=O)N[C@@H](CCCCN)C(=O)O [Peptide 1] (H-VAVLGASGGIGQPLSLLLK-OH) | 2 | – | – | – | – | – | – | – | – | –
2 | CN[C@H](CC(C)C)C(=O)N[C@H]1C(=O)N[C@@H](CC(N)=O)C(=O)N[C@H]2C(=O)N[C@H]3C(=O)N[C@H](C(=O)N[C@H](C(=O)O)c4cc(O)cc(O)c4-c4cc3ccc4O)[C@H](O)c3ccc(c(Cl)c3)Oc3cc2cc(c3O[C@@H]2O[C@H](CO)[C@@H](O)[C@H](O)[C@H]2O[C@H]2C[C@](C)(N)[C@H](O)[C@H](C)O2)Oc2ccc(cc2Cl)[C@H]1O [vancomycin] | – | 2 | 0.5 to 2 | – | – | – | – | – | – | –
3 | FGANALLGVSLAVcKAGAAEK [Peptide 13, synthetic analog of axolotl skin mucus AMP, rank 13] | – | – | – | less distinct | highest levels of caspase-3/7 activity | significantly increased apoptosis | Inhibitory effects | IL6 and MMP2 | BRCA1, BRCA2, NR3C1, SERPINE1, and XBP1 | inhibitory effect
4 | ILLLcVGEAGDTVQFAEYIQK [Peptide 12, synthetic analog of axolotl skin mucus AMP, rank 12] | – | – | – | increased apoptotic activity compared to the control | highest levels of caspase-3/7 activity | significantly increased apoptosis | – | CCND2, EGF, GLI1, KRT5, MMP2, and SERPINE1 | BRCA1, JUN, NR3C1, RB1, SFN, and XBP1 | –
